From EP1683799A1, “3-Amino-6-aryl(or 6-heteroaryl)-4-R²-thieno[2,3-b]pyridin-2-carboxylic acid amides, pharmaceutical compositions comprising the said and their use as inhibitors of TNFalpha release” (IBFB Pharma GmbH, priority 2005, dated 2006)

system: TNFα-Freisetzung; test: Inhibition of TNFα release after LPS stimulation of human whole blood (ELISA); type: cell-based; conditions: human whole blood diluted 1:5 with RPMI 1640; LPS (Salmonella abortus equi) 1 µg/ml; 24 h at 37°C; TNFα in supernatant by ELISA; read-out: EC50 Hemmung der TNFα-Freisetzung
Excerpt: Methodenbeschreibung der Hemmung der TNFα Freisetzung nach LPS Stimulation von humanem Vollblut
Die Stimulierung isolierter Leukozyten für die Freisetzung von Zytokinen kann auf verschiedenen Wegen erfolgen. Lipopolysaccharide (LPS) stellen einen Stimulus für die Untersuchung der Freisetzung von TNFα dar. LPS ist Bestandteil bakterieller Zellwände und wird beim Abtöten der Bakterien (durch Antibiotika oder das natürliche Immunsystem) freigesetzt. LPS stimuliert insbesondere die Aktivität phagozytierender Leukozyten (Gewebsmakrophagen, Granulozyten, Monozyten) und verursacht die Infiltration von Leukozyten vom peripheren Blut in das betroffene Gewebe. Ein Zytokin von besonderer Bedeutung für diese Mechanismen ist TNFα, das in großen Mengen durch die betroffenen Zellen sezemiert wird. Hauptquelle dabei sind Monozyten und Makrophagen. TNFα initiiert und prolongiert den Entzündungsprozess im Zusammenspiel mit anderen Mediatoren.
Für die Untersuchung des Effektes auf die LPS-induzierte TNFα-Freisetzung wurde eine Methode verwendet, die von MARX et al. (Marx D, Tassabehji M, Heer S, Hüttenbrink KB, Szelenyi I (2002) Pulmonary Pharmacology & Therapeutics 15 7-15) beschrieben wurde. Die Methodenbeschreibung in verkürzter Darstellung: Humanes Blut verschiedener Spendern wird durch Zusatz von 10 mM Na-Citrat ungerinnbar gemacht und 1:5 mit RPMI 1640 Zellkulturmedium verdünnt. Die Verbindungen der allgemeinen Formel 1 sowie die Kontrollsubstanzen (z.B. Dexamethason) wurden den Blutproben in verschiedenen Konzentrationen hinzugefügt. 15 Minuten später wurden die Leukozyten durch Zusatz von Lipopolysacchariden (LPS) (aus Salmonella abortus equi) in einer Endkonzentration von 1 µg/ml stimuliert. Nach Inkubation der Testansätze für 24 Stunden bei 37°C. und unter 5% CO2 in wassergesättigter Luft, wurde das Blut zentrifugiert und die Konzentration an TNFα im zellfreien Überstand unter Verwendung eines käuflichen ELISA (BD Biosciences) nach Angaben des Herstellers exakt vermessen.

EC50, < 1 nM:
Cc1ccc(-c2cc(C(F)F)c3c(N)c(C(N)=O)sc3n2)cc1 [Beispiel 1, 3-Amino-4-difluormethyl-6-(4-methyl-phenyl)thieno[2,3-b]pyridin-2-carbonsäureamid]
Cc1ccc(-c2cc(C(F)(F)F)c3c(N)c(C(N)=O)sc3n2)cc1 [Beispiel 7, 3-Amino-6-(4-methyl-phenyl)-4-trifluormethyl-thieno[2,3-b]pyridin-2-carbonsäureamid]
CCCc1ccc(-c2cc(C(F)(F)F)c3c(N)c(C(N)=O)sc3n2)cc1 [Beispiel 9, 3-Amino-6-(4-propyl-phenyl)-4-trifluormethyl-thieno[2,3-b]pyridin-2-carbonsäureamid]
NC(=O)c1sc2nc(-c3ccc4c(c3)OCO4)cc(C(F)(F)F)c2c1N [Beispiel 18, 3-Amino-6-(3,4-dioxomethylen-phenyl)-4-trifluormethyl-thieno[2,3-b]pyridin-2-carbonsäureamid]
NC(=O)c1sc2nc(-c3ccc4c(c3)OCCO4)cc(C(F)(F)F)c2c1N [3-Amino-6-(3,4-dioxoethylen-phenyl)-4-trifluormethyl-thieno[2,3-b]pyridin-2-carbonsäureamid]
CSc1ccc(-c2cc(C(F)(F)F)c3c(N)c(C(N)=O)sc3n2)cc1 [3-Amino-6-(4-methylthio-phenyl)-4-trifluormethyl-thieno[2,3-b]pyridin-2-carbonsäureamid]
NC(=O)c1sc2nc(-c3cccs3)cc(C(F)(F)F)c2c1N [Beispiel 2, 3-Amino-6-(2-thienyl)-4-trifluormethyl-thieno[2,3-b]pyridin-2-carbonsäureamid]
NC(=O)c1sc2nc(-c3ccc4ccccc4c3)cc(C(F)(F)F)c2c1N [Beispiel 5, 3-Amino-6-(2-naphthyl)-4-trifluormethyl-thieno[2,3-b]pyridin-2-carbonsäureamid]
CC(C)c1ccc(-c2cc(C(F)(F)F)c3c(N)c(C(N)=O)sc3n2)cc1 [Beispiel 10, 3-Amino-6-(4-isopropyl-phenyl)-4-trifluormethyl-thieno[2,3-b]pyridin-2-carbonsäureamid]
Cc1ccc(-c2cc(C(F)(F)F)c3c(N)c(C(N)=O)sc3n2)cc1C [Beispiel 16, 3-Amino-6-(3,4-dimethyl-phenyl)-4-trifluormethyl-thieno[2,3-b]pyridin-2-carbonsäureamid]
NC(=O)c1sc2nc(-c3ccc(Br)cc3)cc(C(F)(F)F)c2c1N [Beispiel 15, 3-Amino-6-(4-brom-phenyl)-4-trifluormethyl-thieno[2,3-b]pyridin-2-carbonsäureamid]
NC(=O)c1sc2nc(-c3ccc(F)cc3)cc(C(F)(F)F)c2c1N [Beispiel 22, 3-Amino-6-(4-fluor-phenyl)-4-trifluormethyl-thieno[2,3-b]pyridin-2-carbonsäureamid]
NC(=O)c1sc2nc(-c3ccccc3)cc(C(F)(F)F)c2c1N [Beispiel 6, 3-Amino-6-phenyl-4-trifluormethyl-thieno[2,3-b]pyridin-2-carbonsäureamid]
NC(=O)c1sc2nc(-c3ccc(Cl)cc3)cc(C(F)(F)F)c2c1N [Beispiel 14, 3-Amino-6-(4-chlor-phenyl)-4-trifluormethyl-thieno[2,3-b]pyridin-2-carbonsäureamid]
COc1ccc(-c2cc(C(F)(F)F)c3c(N)c(C(N)=O)sc3n2)cc1 [Beispiel 12, 3-Amino-6-(4-methoxy-phenyl)-4-trifluormethyl-thieno[2,3-b]pyridin-2-carbonsäureamid]
CCOc1ccc(-c2cc(C(F)(F)F)c3c(N)c(C(N)=O)sc3n2)cc1 [Beispiel 13, 3-Amino-6-(4-ethoxy-phenyl)-4-trifluormethyl-thieno[2,3-b]pyridin-2-carbonsäureamid]
CCc1ccc(-c2cc(C(F)(F)F)c3c(N)c(C(N)=O)sc3n2)cc1 [Beispiel 8, 3-Amino-6-(4-ethyl-phenyl)-4-trifluormethyl-thieno[2,3-b]pyridin-2-carbonsäureamid]
